Assay [1] concerns human iPS cell-derived myocardial cells. Description: Heart rate of myocardial cells by MEA, serum-free culture medium with isoproterenol and carbachol added. Format: cell-based. The settings on record: serum-free culture medium with 1 μmol/L isoproterenol and 3 μmol/L carbachol; cumulative drug concentrations, 20 minutes after addition; vs medium control. Here is the method:
(§1) Example 4: Method and results of evaluating increase in heart rate by muscarinic receptor inhibitor (atropine) using serum-free culture medium to which adrenergic receptor agonist (isoproterenol) and muscarinic receptor agonist (carbachol) are added Human iPS cell-derived myocardial cells (iCell myocardial cells 2.0, manufactured by FUJIFILM Cellular Dynamics, Inc.) in a frozen state were thawed, suspended in a thawing culture medium (iCell myocardial cell thawing culture medium, manufactured by FUJIFILM Cellular Dynamics, Inc.), and then seeded at a cell density of 50,000 cells per well on a MEA plate (Cyto View MEA 48, manufactured by Axion BioSystems, Inc.). The seeding density of myocardial cells in the vicinity of the electrode was 2,725 cells/mm^2. After the plate was allowed to stand in a CO2 incubator for several hours, a maintenance culture medium (iCell myocardial cell maintenance culture medium, manufactured by FUJIFILM Cellular Dynamics, Inc.) containing serum was added, and the myocardial cells were cultured in the CO2 incubator for about one week. The culture medium was exchanged with a serum-free culture medium (a myocardial cell serum-free assay culture medium, manufactured by FUJIFILM Cellular Dynamics, Inc.) on the day before the measurement.
(§2) On the day of measurement, the MEA plate on which human iPS cell-derived myocardial cells were cultured was placed in an MEA system (Maestro Pro, manufactured by Axion BioSystems, Inc.), 1 μmol/L of isoproterenol (manufactured by Tokyo Chemical Industry Co., Ltd.) and 3 μmol/L of carbachol (manufactured by Tokyo Chemical Industry Co., Ltd.) were added to the culture medium, and then the extracellular potential was measured after 20 minutes from the addition (medium control, atropine concentration: 0 μmol/L). Subsequently, 0.01 μmol/L of atropine (manufactured by Tokyo Chemical Industry Co., Ltd.) was added to the MEA plate, and then the extracellular potential was measured after 20 minutes from the addition. Similarly, atropine was added to give concentrations of 0.1 μmol/L and 1 μmol/L, and then the extracellular potential was measured at each concentration.
From the measurement results of the extracellular potential, the interval between sharp peaks indicating depolarization of human iPS cell-derived myocardial cells was taken as the beating time (sec), and the heart rate (/min)=60/beating time (sec) was calculated. The addition of atropine was confirmed to result in an increase in heart rate of up to 51% (FIG. 7).
In the same manner as in Example 4, evaluation was carried out using an MEA plate on which human iPS cell-derived myocardial cells were cultured. Specifically, the same operations as in Example 4 were carried out except that atropine added in Example 4 was changed to tiotropium (manufactured by Tokyo Chemical Industry Co., Ltd.) and the concentration of tiotropium added was 1 pmol/L, 10 pmol/L, 100 pmol/L, and 1,000 pmol/L.
In the same manner as in Example 4, evaluation was carried out using an MEA plate on which human iPS cell-derived myocardial cells were cultured. Specifically, the same operations as in Example 4 were carried out except that atropine added in Example 4 was changed to glycopyrronium (manufactured by Tokyo Chemical Industry Co., Ltd.) and the concentration of glycopyrronium added was 0.01 nmol/L, 0.1 nmol/L, 1 nmol/L, and 10 nmol/L.
In the same manner as in Example 4, evaluation was carried out using an MEA plate on which human iPS cell-derived myocardial cells were cultured. Specifically, the same operations as in Example 4 were carried out except that the atropine added in Example 4 was changed to propranolol (manufactured by FUJIFILM Wako Pure Chemical Corporation) and the concentration of propranolol added was 0.1 nmol/L, 1 nmol/L, 10 nmol/L, and 100 nmol/L.
In the same manner as in Example 4, evaluation was carried out using an MEA plate on which human iPS cell-derived myocardial cells were cultured. […]

Assay [2] has the same test system. The assay can be described thus: Heart rate of myocardial cells by MEA, serum-free culture medium with isoproterenol added. The format is cell-based. The settings on record: serum-free culture medium with 1 μmol/L isoproterenol; cumulative drug concentrations, 20 minutes after addition; vs medium control. The method, then:
as §1, with “1:” for “4:”, “decrease” for “increase”, “agonist (carbachol)” for “inhibitor (atropine)”, “is” for “and muscarinic receptor agonist (carbachol) are”, “2,671” for “2,725”, “The culture medium was exchanged with a serum-free culture medium (a myocardial cell serum-free assay culture medium, manufactured by FUJIFILM Cellular Dynamics, Inc.) on the day before the measurement.” left out
as §2, with “Ltd.) was” for “Ltd.) and 3 μmol/L of carbachol (manufactured by Tokyo Chemical Industry Co., Ltd.) were”, “control, carbachol” for “control, atropine”, “of carbachol” for “of atropine”, “Similarly, carbachol” for “Similarly, atropine”, “0.1 μmol/L, 1 μmol/L,” for “0.1 μmol/L”, “and 10” for “and 1”
From the measurement results of the extracellular potential, the interval between sharp peaks indicating depolarization of human iPS cell-derived myocardial cells was taken as the beating time (sec), and the heart rate (/min)=60/ beating time (sec) was calculated. […]

`CC(=O)Oc1ccccc1C(=O)O` [aspirin]: in assay [1], the “increase in heart rate” value was “at most 17%”.

Take `CC(C)NCC(O)COc1cccc2ccccc12` (stereo not shown) [propranolol]: the “decrease in heart rate” value in assay [1] is “up to 28%”.

For `CC1OC2(CS1)CN1CCC2CC1` (stereo not shown) [cevimeline], the “decrease in heart rate” value in assay [2] is recorded as “up to 26%”.

Regarding `C[N+]1(C)[C@@H]2C[C@@H](OC(=O)C(O)(c3cccs3)c3cccs3)C[C@H]1[C@@H]1O[C@@H]12` [tiotropium], the “increase in heart rate” value in assay [1] was “up to 36%”.

For the compound `CC[C@@H]1C(=O)OC[C@@H]1Cc1cncn1C` [pilocarpine], in assay [2], the “decrease in heart rate” value was “up to 15%”.

For the compound `C[N+]1(C)CCC(OC(=O)C(O)(c2ccccc2)C2CCCC2)C1` (stereo not shown) [glycopyrronium], in assay [1], the “increase in heart rate” value is reported as “up to 36%”.

Take `CC(C)NCC(O)COc1ccc(CC(N)=O)cc1` (stereo not shown) [atenolol]: the “decrease in heart rate” value in assay [1] was “up to 22%”.

The values are drawn from patent US20250354979A1, “DRUG EVALUATION METHOD, REAGENT, AND KIT” (FUJIFILM Corporation, priority 2023, published 2025).
